Reference: patent publication US20230242616A1, “CHEMOKINE-SELECTIVE CXCR4 ECTODOMAIN-DERIVED (POLY)PEPTIDE” (Ludwig-Maximilians-Universität München, priority 2020, published 2023)

Assays:
mouse MIF = mouse MIF (Mus musculus, UniProt P34884); assay: Dot blot with TAMRA-msR4M-L1, human versus mouse MIF; type: binding
Procedure: Dot blot. […] Non-specific binding was blocked with Tris-buffered saline (TBS), pH 7.4, containing 0.1% Tween-20 (TBS-T) and 1% BSA. […] Fluorescence intensities were measured at 600 nm using an Odyssey® Fc imager (LICOR Biosciences, Bad Homburg, Germany). The total intensity of each spot was automatically corrected by the individual background signal.

[1] = test system: primary human monocyte-derived macrophages; assay: Dil-LDL uptake / foam cell formation, MIF-mediated; type: cell-based
Procedure: Dil-LDL uptake/foam cell formation. […] After washing with imaging solution (MEM without phenol red containing 30 mM HEPES, 0.5 g/L NaHCO3, pH 7.4, and 0.2% BSA), cells were exposed to 50 μg/mL 1,1′-dioctadecyl-3,3,3′3′-tetra-methylindocarbocyanine-labeled LDL (Dil-LDL) for 30 min at 4° C. followed by incubation at 37° C. for 20 min. Cells were washed with ice-cold imaging solution (pH 3.5), fixed, and counter-stained with Hoechst 33258.

[2] = test system: carotid arteries of Apoe−/− mice; assay: Leukocyte adhesion in atherogenic carotid arteries ex vivo under flow; set-up: species or system mouse; settings: injection three days before vessel preparation; physiological flow
Procedure: Fluos-msR4M-L1 staining and monocyte adhesion in atherosclerotic carotid arteries by multiphoton microscopy. Monocyte adhesion experiments in atherosclerotic carotid arteries under physiological flow conditions ex vivo have been established^14, 70. Seven-week-old Apoe^−/− mice were fed a Western-type HFD (0.2% cholesterol) for 12 weeks. […] On day 3, arteries were prepared and mounted into an arteriograph chamber as described^70. […] Mouse leukocytes isolated from the bone marrow of msR4M-L1- or vehicle-treated atherogenic Apoe^−/− mice were stained with fluorescent Green CMFDA or Red CMPTX (Thermo Fisher Scientific). […] The red- and green-stained cell pools were mixed at a 1:1 ratio and 3×10^6 cells in 6 mL perfused into the artery of msR4M-L1- or vehicle-treated mice, respectively. Arteries were scanned by MPM using a multispectral TCS SP8 DIVE instrument with filter-free 4TUNE NDD detection module (Leica) and the number of adherent and transmigrated leukocytes determined by scanning multi-photon excitation. Vessel structure (and plaques) were visualized by second harmonic generation (SHG).

[3] = test system: primary mouse spleen B lymphocytes; assay: Transwell chemotaxis of B cells elicited by CXCL12; type: cell-based
Procedure: Chemotaxis analysis of murine B cells. A Transwell-based assay was used as described previously^34. Briefly, splenic B cells were isolated by negative depletion using a Pan B Cell Isolation Kit (Miltenyi Biotec. Bergisch Gladbach, Germany). Purity of the cells was between 95 and 99%. […] Chemotaxis was followed for 4 h at 37° C. in a humidified atmosphere of 5% CO2. Migrated cells were counted by flow cytometry using CountBright™ Absolute Counting Beads (Molecular Probes-Invitrogen).

human monocytes = assay: 3D migration of monocytes elicited by CXCL12; type: cell-based; settings: 5-fold molar excess
Source text: Isolation of human peripheral blood-derived monocytes. Human peripheral blood-derived monocytes were isolated as described^14. Briefly, blood was collected from healthy donors or buffy coat obtained from the blood bank of Munich University Hospital, mixed 1:1 with PBS, and PBMCs isolated by Ficoll-Paque Plus gradient (GE Healthcare). Monocytes were purified by negative depletion using the Monocyte Isolation Kit II (Miltenyi). Monocyte purity was verified by flow cytometry using an anti-CD14 antibody (Miltenyl) and was 95-98%. […] The isolation of PBMCs from donor blood was approved by the local ethics committee of LMU Munich. 3D migration of human peripheral blood-derived monocytes by time-lapse microscopy. The 3D-migration behavior of human monocytes was assessed by time-lapse microscopy and individual cell tracking using the 3D chemotaxis μ-Slide system from Ibidi GmbH (Munich, Germany), adapting the established Ibidi dendritic cell protocol for human monocytes. […] Cell motility was monitored performing time-lapse imaging every 1 min at 37° C. for 2 h using a Leica inverted DMi8-Life Cell Imaging System equipped with a DMC2900 Digital Microscope Camera with CMOS sensor and live cell-imaging software (Leica Microsystems, Wetzlar, Germany). Images were imported as stacks to ImageJ software and analyzed with the manual tracking and chemotaxis/migration tools (Ibidi GmbH).

Apoe−/− mice on HFD = assay: Cytokine array on plasma of treated mice; type: in vivo, mouse; settings: reductions for IFN-γ, IL-1α, IL-16, TNF-α, CXCL13/BLC
Procedure: Cytokine array. Cytokine/chemokine profiling was performed from plasma samples of msR4M-L1-versus vehicle-treated Apoe^−/− mice using mouse cytokine array panel A (R&D Systems, ARY006) according to the manufacturer's instructions. Plasma samples were diluted (1:10) in array buffer; incubated with antibody detection cocktail for 1 h at RT, exposed to the blocked membranes (overnight, 4° C.), membranes washed and incubated with streptavidin-HRP conjugate working solution (30 min, RT). Membranes were developed with Chemi-Reagent Mix and analyzed by Odyssey® Fc imager. The average signal (pixel density) of duplicate spots was quantified by ImageJ.

CC[C@H](C)[C@H](NC(=O)[C@H](Cc1ccc(O)cc1)NC(=O)[C@H](CCCNC(=N)N)NC(=O)[C@H](CC(=O)O)NC(=O)CCCCCCCCCCCNC(=O)CCCCCNC(=O)[C@H](CCCCN)NC(=O)[C@H](CS)NC(=O)[C@H](CC(C)C)NC(=O)[C@H](Cc1ccccc1)NC(=O)[C@H](CC(N)=O)NC(=O)CNC(=O)[C@H](Cc1ccccc1)NC(=O)[C@H](Cc1ccc(O)cc1)NC(=O)[C@H](Cc1c[nH]c2ccccc12)NC(=O)[C@H](CC(N)=O)NC(=O)[C@H](C)NC(=O)[C@@H](NC(=O)[C@H](C)NC(=O)[C@@H](N)CC(=O)O)C(C)C)C(=O)N[C@@H](CS)C(=O)N[C@@H](CC(=O)O)C(=O)N[C@@H](CCCNC(=N)N)C(=O)N[C@@H](Cc1ccccc1)C(=O)N[C@@H](Cc1ccc(O)cc1)C(=O)N1CCC[C@H]1C(=O)N[C@@H](CC(N)=O)C(=O)N[C@@H](CC(=O)O)C(=O)N[C@@H](CC(C)C)C(=O)N[C@@H](Cc1c[nH]c2ccccc12)C(=O)N[C@H](C(N)=O)C(C)C [msR4M-L1]
binding to human versus mouse MIF on dot blot (mouse MIF): binds equally well to human and mouse MIF
effect on MIF-mediated Dil-LDL uptake ([1]; 80 nM MIF): dose-dependently inhibited
inhibitory capacity compared with established MIF inhibitors ([1]; Dil-LDL uptake): slightly better than that of ISO-1, but lower than that or NIH/IIID.9
number of adhering leukocytes [2]: significantly reduced the number of adhering leukocytes
effect on CXCL12-elicited B-cell chemotaxis [3]: unable to inhibit chemotaxis elicited by CXCL12
effect on CXCL12-induced cell motility (human monocytes): remained unaffected
circulating inflammatory cytokine levels (Apoe−/− mice on HFD): marked reduction
